{"source": "patent US20120009239A1", "about": "“Prebiotic Formulations for use with Probiotics to Increase Probiotic Growth Rate and Activity” (MASTER SUPPLEMENTS, INC., priority 2010, published 2012)", "key": {"[1]": {"test_system": "Lactobacillus salivarius—Ls-33 (LS-30)", "assay": "Growth and lactic acid producing activity of Lactobacillus salivarius Ls-33 in MRS broth", "assay_type": "cell-based", "details": "for Lactic Acid % / pH: additive at 0.1% in MRS; for NTU (Turbidity): additive at 0.1% in MRS (polysorbate 80 control 1.0 g per liter)", "source_text": "(§1) The prebiotics of this invention can be in the same capsule or formulation as the probiotics, or in a separate dosage form. The prebiotics should be in a separate dosage form if they are naturally occurring, as opposed to adsorbed. The prebiotics of this invention may be taken with carbohydrate or fiber to increase their effectiveness. Prebiotic formulations are often probiotic strain dependent. Some Lactobacillus strains, for example, respond best to a form of lecithin derived from sunflowers (Sunflower Lecithin) while others show no preference to lecithin type and respond equally well to soy lecithin. Other strains show a synergistic response when lecithin is used together with oleic acid. […] Each flask was tempered to 37° C. and aseptically inoculated with 0.14 gm of the individual probiotic strains (in Examples 5 to 10 below) to be tested. At specified time intervals, a 30 ml sample from each flask was aseptically transferred into a HACH […] Turbidimeter sample cell. The turbidity of each sample was read and the results were reported in NTU's. The same 30 ml sample used for the turbidity reading was transferred into a 250 ml glass beaker, and the pH was recorded. The sample was titrated using 0.1N NaOH to an endpoint of pH 6.8, and the quantity of NaOH used was recorded. The % Lactic Acid was calculated using the following formula: % Lactic Acid=((mls of 0.1N NaOH)×(0.1N)×(90 gm/mole)×(1 L/1000 ml))×100 mls of sample % Lactic Acid=(mls of 0.1N NaOH)×(0.9) (Results reported at 12 hours and 23 hours like: 12/23 in Table V below)"}, "[2]": {"test_system": "L. acidophilus NCFM (LA-1)", "assay": "Growth (turbidity) and lactic acid producing activity of L. acidophilus NCFM in MRS broth with polysorbate 80 or substitute", "assay_type": "cell-based, Lactobacillus acidophilus", "details": "for Lactic Acid % / pH: additive at 0.1% in MRS; for NTU (Turbidity): additive at 0.1% in MRS (polysorbate 80 control 1.0 g per liter)", "description": "The prebiotics of this invention can be in the same capsule or formulation as the probiotics, or in a separate dosage form. The prebiotics should be in a separate dosage form if they are naturally occurring, as opposed to adsorbed. […] Prebiotic formulations are often probiotic strain dependent. […] At specified time intervals, a 30 ml sample from each flask was aseptically transferred into a HACH […] Turbidimeter sample cell. The turbidity of each sample was read and the results were reported in NTU's. The same 30 ml sample used for the turbidity reading was transferred into a 250 ml glass beaker, and the pH was recorded. The sample was titrated using 0.1N NaOH to an endpoint of pH 6.8, and the quantity of NaOH used was recorded. The % Lactic Acid was calculated using the following formula: % Lactic Acid=((mls of 0.1N NaOH)×(0.1N)×(90 gm/mole)×(1 L/1000 ml))×100 mls of sample % Lactic Acid=(mls of 0.1N NaOH)×(0.9) (Results reported at 12 hours and 23 hours like: 12/23 in Table I below)"}, "[3]": {"test_system": "Lactobacillus rhamnosus—Lr-32 (LR-44)", "assay": "Growth and lactic acid producing activity of Lactobacillus rhamnosus Lr-32 in MRS broth", "assay_type": "cell-based", "details": "for Lactic Acid % / pH: additive at 0.1% in MRS; for NTU (Turbidity): additive at 0.1% in MRS (polysorbate 80 control 1.0 g per liter)", "source_text": "as §1, with “IV” for “V”"}, "[4]": {"test_system": "Lactobacillus paracasei Lpc-37 (F-19)", "assay": "Growth and lactic acid producing activity of Lactobacillus paracasei Lpc-37 in MRS broth", "assay_type": "cell-based", "details": "for Lactic Acid % / pH: additive at 0.1% in MRS; for NTU (Turbidity): additive at 0.1% in MRS (polysorbate 80 control 1.0 g per liter)", "source_text": "as §1, with “III” for “V”"}, "[5]": {"test_system": "THERALAC® Lot # 32310A, a commercial probiotic product", "assay": "Growth of the commercial probiotic […] in MRS broth", "assay_type": "cell-based", "details": "for Lactic Acid % / pH: additive at 0.1% in MRS; for NTU (Turbidity): additive at 0.1% in MRS (polysorbate 80 control 1.0 g per liter), THERALAC inoculated at 0.1%", "description": "MRS broth was prepared with (for controls) and without (for tests) polysorbate 80 and filled into 1 liter screw cap flasks at 500 ml each and autoclaved at 121° C. for 30 minutes. Various lecithin and/or oleic acid additives, or nothing (negative control), was added to the tests flasks prior to autoclaving. The flasks were then tempered to 37° C. in a water bath and inoculated at 0.1% with […]® Lot # 32310A, a commercial probiotic product (Master Supplements, Inc., Victoria, Minn.). Capsules of […]® were opened and the contents mixed aseptically to serve as the inoculum source. At an inoculation rate of 0.1%, approximately 80 million CFU was added per ml of MRS media. […]® contains (formulation strength) the following probiotic strains at the approximate CFU values listed per gram: Lactobacillus acidophilus NCFM (LA-1): 30 billion CFU Bifidobacterium lactis B1-04 (BL-34): 30 billion CFU Lactobacillus paracasei Lpc-37 (F-19): 14 billion CFU Lactobacillus rhamnosus Lr-32 (LR-44): 6 billion CFU Bifidobacterium lactis Bi-07: 8 billion CFU Turbidity, pH and titrations (made with 0.1 N NaOH and reported as % lactic acid) were made at various times up to 23 hours. The results are presented below in Table VI for the 12 and 23-hour analyses."}, "[6]": {"test_system": "Bifidobacterium lactic Bl-04 (BL-34)", "assay": "Growth and lactic acid producing activity of Bifidobacterium lactis Bl-04 in MRS broth", "assay_type": "cell-based", "details": "for Lactic Acid % / pH: additive at 0.1% in MRS; for NTU (Turbidity): additive at 0.1% in MRS (polysorbate 80 control 1.0 g per liter)", "source_text": "as §1, with “II” for “V”"}, "[7]": {"details": "at the concentrations studied (0.1% + 0.1%)"}}, "data": [{"compound": "CCCCCCCC/C=C\\CCCCCCCC(=O)O", "note": "[Oleic Acid]", "values": [{"measurement": "Replacement of polysorbate 80 (growth and activity), conclusion in words", "setting": "[1]; 0.1% inclusion rate", "result": "not as good a replacement"}, {"measurement": "Lactic Acid %", "setting": "[1]; 12 hours", "result": 0.073, "unit": "%"}, {"measurement": "pH", "setting": "[1]; 12 hours", "result": 4.4}, {"measurement": "pH", "setting": "[1]; 23 hours", "result": 3.8}, {"measurement": "Replacement of polysorbate 80 (growth and activity), conclusion in words", "setting": "[2]; 0.1% inclusion rate", "result": "somewhat effective"}, {"measurement": "Replacement of polysorbate 80 (growth and activity), conclusion in words", "setting": "[3]; 0.1% inclusion rate", "result": "not as good a replacement for polysorbate 80 as sunflower lecithin"}, {"measurement": "Lactic Acid %", "setting": "[3]; 12 hours", "result": 0.072, "unit": "%"}, {"measurement": "pH", "setting": "[3]; 12 hours", "result": 6.2}, {"measurement": "pH", "setting": "[3]; 23 hours", "result": 4.1}, {"measurement": "Synergy with sunflower lecithin", "setting": "[3]; [7]", "result": "not synergistic"}, {"measurement": "Replacement of polysorbate 80 (growth and activity), conclusion in words", "setting": "[4]; 0.1% inclusion rate", "result": "not as effective a replacement for polysorbate 80 as sunflower lecithin"}, {"measurement": "Synergy with sunflower lecithin", "setting": "[4]; [7]", "result": "does not appear to be synergistic"}, {"measurement": "Replacement of polysorbate 80 (growth and activity), conclusion in words", "setting": "[5]; 0.1% inclusion rate", "result": "acceptable replacement value for polysorbate 80"}]}, {"compound": "Polysorbate 80", "values": [{"measurement": "Lactic Acid %", "setting": "[6]; 12 hours", "result": 0.57, "unit": "%"}, {"measurement": "pH", "setting": "[6]; 12 hours", "result": 4.8}, {"measurement": "NTU (Turbidity)", "setting": "[6]; 12 hours", "result": 922, "unit": "NTU"}, {"measurement": "Lactic Acid %", "setting": "[6]; 23 hours", "result": 0.84, "unit": "%"}, {"measurement": "pH", "setting": "[6]; 23 hours", "result": 4.5}, {"measurement": "NTU (Turbidity)", "setting": "[6]; 23 hours", "result": 1434, "unit": "NTU"}, {"measurement": "Lactic Acid %", "setting": "[1]; 12 hours", "result": 1.42, "unit": "%"}, {"measurement": "pH", "setting": "[1]; 12 hours", "result": 3.8}, {"measurement": "NTU (Turbidity)", "setting": "[1]; 12 hours", "result": 3426, "unit": "NTU"}, {"measurement": "Lactic Acid %", "setting": "[1]; 23 hours", "result": 1.68, "unit": "%"}, {"measurement": "pH", "setting": "[1]; 23 hours", "result": 3.7}, {"measurement": "NTU (Turbidity)", "setting": "[1]; 23 hours", "result": 3931, "unit": "NTU"}, {"measurement": "Lactic Acid %", "setting": "[2]; 12 hours", "result": 1.09, "unit": "%"}, {"measurement": "pH", "setting": "[2]; 12 hours", "result": 4.2}, {"measurement": "NTU (Turbidity)", "setting": "[2]; 12 hours", "result": 1855, "unit": "NTU"}, {"measurement": "Lactic Acid %", "setting": "[2]; 23 hours", "result": 1.27, "unit": "%"}, {"measurement": "pH", "setting": "[2]; 23 hours", "result": 4.1}, {"measurement": "NTU (Turbidity)", "setting": "[2]; 23 hours", "result": 2038, "unit": "NTU"}, {"measurement": "Lactic Acid %", "setting": "[3]; 12 hours", "result": 1.12, "unit": "%"}, {"measurement": "pH", "setting": "[3]; 12 hours", "result": 4.0}, {"measurement": "NTU (Turbidity)", "setting": "[3]; 12 hours", "result": 2804, "unit": "NTU"}, {"measurement": "Lactic Acid %", "setting": "[3]; 23 hours", "result": 1.67, "unit": "%"}, {"measurement": "pH", "setting": "[3]; 23 hours", "result": 3.7}, {"measurement": "NTU (Turbidity)", "setting": "[3]; 23 hours", "result": 3776, "unit": "NTU"}, {"measurement": "Lactic Acid %", "setting": "[4]; 12 hours", "result": 0.99, "unit": "%"}, {"measurement": "pH", "setting": "[4]; 12 hours", "result": 4.2}, {"measurement": "NTU (Turbidity)", "setting": "[4]; 12 hours", "result": 1664, "unit": "NTU"}, {"measurement": "Lactic Acid %", "setting": "[4]; 23 hours", "result": 1.39, "unit": "%"}, {"measurement": "pH", "setting": "[4]; 23 hours", "result": 3.9}, {"measurement": "NTU (Turbidity)", "setting": "[4]; 23 hours", "result": 2824, "unit": "NTU"}, {"measurement": "Lactic Acid %", "setting": "[5]; 12 hours", "result": 1.42, "unit": "%"}, {"measurement": "pH", "setting": "[5]; 12 hours", "result": 3.9}, {"measurement": "NTU (Turbidity)", "setting": "[5]; 12 hours", "result": 3311, "unit": "NTU"}, {"measurement": "Lactic Acid %", "setting": "[5]; 23 hours", "result": 1.84, "unit": "%"}, {"measurement": "pH", "setting": "[5]; 23 hours", "result": 3.7}, {"measurement": "NTU (Turbidity)", "setting": "[5]; 23 hours", "result": 3694, "unit": "NTU"}]}]}
